# Data reported in patent US10800741B2 (ANCUREALL PHARMACEUTICAL (SHANGHAI) CO., LTD., priority 2017, dated 2020).
# Columns and labels:
# HCT116 = test: In vitro growth inhibition of PI3KCA amplified/mutant tumor cells HCT116; assay type: cell-based; settings: Homo sapiens, HCT-116, read-out: IC50 growth inhibition
# Procedure: (§1) Suspension culture cells were collected by centrifugation (1700 rpm, 3 minutes). The supernatant was discarded and the cells were counted. According to each cell growth cycle, different concentrations of cells were prepared (5˜10×10^4 cells per ml), and inoculated to 96-well plates (Corning), with 100 μl per well, and incubated overnight at 37° C., 5% CO2. The next day, the test compound was added to the cultured cells (2 wells in parallel). The final concentration of the solvent was less than 1/1,000. The cells were further cultured for 3 to 5 days and assayed by MTT.
# (§2) The adherent cells were taken out from the cell culture medium, and immediately added to a freshly prepared complete medium containing 10% CCK8 (5% FBS), 100 ul per hole. The suspended cells were directly added to a CCK8 reagent until reaching a final concentration of 10% and cultured for 1 to 4 hours.
# (§3) T=optical density of drug-treated cell wells−optical density of blank control wells; T0=optical density of cell wells before drug treatment−optical density of blank control wells; C=optical density of solvent control wells−optical density of blank control wells. […] The experiments were repeated 1 to 3 times and a statistical analysis of data was conducted.
# KYSE70 = test: In vitro growth inhibition of PI3KCA amplified/mutant tumor cells KYSE70; assay type: cell-based; settings: Homo sapiens, KYSE-70, read-out: IC50 growth inhibition
# Procedure: as §1, §2, §3
# SK-OV-3 = test: In vitro growth inhibition of PI3KCA amplified/mutant tumor cells SK-OV-3; assay type: cell-based; settings: Homo sapiens, SK-OV-3, read-out: IC50 growth inhibition
# Procedure: as §1, §2, §3
# HCC1954 = test: In vitro growth inhibition of PI3KCA amplified/mutant tumor cells HCC1954; assay type: cell-based; settings: Homo sapiens, HCC1954, read-out: IC50 growth inhibition
# Procedure: as §1, §2, §3
# A2780 = test: In vitro growth inhibition of PI3KCA amplified/mutant tumor cells A2780; assay type: cell-based; settings: Homo sapiens, A2780, read-out: IC50 growth inhibition
# Procedure: as §1, §2, §3
# NCI-H460 = test: In vitro growth inhibition of PI3KCA amplified/mutant tumor cells NCI-H460; assay type: cell-based; settings: Homo sapiens, NCI-H460, read-out: IC50 growth inhibition
# Procedure: as §1, §2, §3
# AGS = test: In vitro growth inhibition of PI3KCA amplified/mutant tumor cells AGS; assay type: cell-based; settings: Homo sapiens, read-out: IC50 growth inhibition
# Procedure: as §1, §2, §3
# HGC-27 = test: In vitro growth inhibition of PI3KCA amplified/mutant tumor cells HGC-27; assay type: cell-based; settings: Homo sapiens, HGC-27, read-out: IC50 growth inhibition
# Procedure: as §1, §2, §3
# SW48 = test: In vitro growth inhibition of PI3KCA amplified/mutant tumor cells SW48; assay type: cell-based; settings: Homo sapiens, SW48, read-out: IC50 growth inhibition
# Procedure: as §1, §2, §3
# MDA-MB-453 = test: In vitro growth inhibition of MDA-MB-453 cells; assay type: cell-based; settings: Homo sapiens, PI3KCA H1047R, FGFR4+++/Y367C
# Procedure: as §1, with “Adherent cells were digested with 0.25% trypsin-EDTA (Gibco). Suspension” for “Suspension”
# (§4) The MTT test reagent was a Dojindo CCK8 kit and the Microplate Reader was a THERMO […] FC instrument.
# (§5) The adherent cells were taken out from the cell culture medium, and immediately added to a freshly prepared complete medium containing 10% CCK8 (5% FBS), 100 ul per hole. The suspended cells were directly added to a CCK8 reagent until reaching a final concentration of 10% and cultured for 1 to 4 hours. When a dark yellow color could be observed in the solvent control wells, the absorbance value at OD450 nm was measured and the cell growth rate was calculated according to the following formula: Cell Growth Rate (%)=100×(T−T0)/(C−T0)
# as §3
# (§6) Mutations in the FGFR1-4 gene often occur in different types of cancer patients. In order to test the growth inhibition activity of the present compound against tumor cells expressing different FGFR variants, tumor cell lines expressing representative FGFR1-4 were selected for further determining the activity of compounds 25, 66, 38 and 95 of the present invention. BGJ398, a selective inhibitor of FGFR1-4, was used as the control compound. The specific test method is the same as test example 1.
# JHH-7 = test: In vitro growth inhibition of JHH-7 cells; assay type: cell-based; settings: Homo sapiens, JHH7, FGFR3+++, FGFR4 +++
# Procedure: as §1, with “Adherent cells were digested with 0.25% trypsin-EDTA (Gibco). Suspension” for “Suspension”
# as §4, §5, §3, §6
# Cal-120 = test: In vitro growth inhibition of Cal-120 cells; assay type: cell-based; settings: Homo sapiens, FGFR1 amp
# Procedure: as §1, with “Adherent cells were digested with 0.25% trypsin-EDTA (Gibco). Suspension” for “Suspension”
# as §4, §5, §3, §6
# RT112/84 = test: In vitro growth inhibition of RT112/84 cells; assay type: cell-based; settings: Homo sapiens, FGFR3-TACC3
# Procedure: as §1, with “Adherent cells were digested with 0.25% trypsin-EDTA (Gibco). Suspension” for “Suspension”
# as §4, §5, §3, §6
# PLC/PRF/5 = test: In vitro growth inhibition of PLC/PRF/5 cells; assay type: cell-based; settings: Homo sapiens, FGFR3+++, FGFR4 +++
# Procedure: as §1, with “Adherent cells were digested with 0.25% trypsin-EDTA (Gibco). Suspension” for “Suspension”
# as §4, §5, §3, §6
# JIMT-1 = test: In vitro growth inhibition of JIMT-1 cells; assay type: cell-based; settings: Homo sapiens, FGFR1 amp, HER2 amp, PI3KCA C420R
# Procedure: as §1, with “Adherent cells were digested with 0.25% trypsin-EDTA (Gibco). Suspension” for “Suspension”
# as §4, §5, §3, §6
# Hep G2 = test: In vitro growth inhibition of Hep G2 cells; assay type: cell-based; settings: Homo sapiens, HepG2, FGFR3+++, FGFR4 +++
# Procedure: as §1, with “Adherent cells were digested with 0.25% trypsin-EDTA (Gibco). Suspension” for “Suspension”
# as §4, §5, §3, §6
# Hep3B2 (FGFR3/4+++) = test: In vitro growth inhibition of Hep3B2 tumor cells (MTT/CCK8); assay type: cell-based, Human; settings: Homo sapiens, Hep3B; in vitro growth inhibition (or induction of apoptosis), cells cultured 3 to 5 days, MTT (CCK8); read-out: IC50 Hep3B2 (FGFR3/4+++)
# Kasumi-1 (KIT N822K) = test: In vitro growth inhibition of Kasumi-1 tumor cells (MTT/CCK8); assay type: cell-based, Human; settings: Homo sapiens, Kasumi 1; in vitro growth inhibition (or induction of apoptosis), cells cultured 3 to 5 days, MTT (CCK8); read-out: IC50 Kasumi-1 (KIT N822K)
# H1581 (FGFR1 amp) = test: In vitro growth inhibition of H1581 tumor cells (MTT/CCK8); assay type: cell-based, Human; settings: Homo sapiens, NCI-H1581; in vitro growth inhibition (or induction of apoptosis), cells cultured 3 to 5 days, MTT (CCK8); read-out: IC50 H1581 (FGFR1 amp)
# AN3-CA = test: In vitro growth inhibition of AN3-CA cells; assay type: cell-based; settings: Homo sapiens, FGFR2 mutant
# Procedure: as §1, with “Adherent cells were digested with 0.25% trypsin-EDTA (Gibco). Suspension” for “Suspension”
# as §4, §5, §3, §6
# A375 = test: In vitro growth inhibition of A375 cells; assay type: cell-based; settings: Homo sapiens, A-375, BRAF V600E, FGFR2 mutant
# Procedure: as §1, with “Adherent cells were digested with 0.25% trypsin-EDTA (Gibco). Suspension” for “Suspension”
# as §4, §5, §3, §6
# Karpas 299 (NPM-ALK) = test: In vitro growth inhibition of Karpas 299 tumor cells (MTT/CCK8); assay type: cell-based, Human; settings: Homo sapiens, KARPAS-299; in vitro growth inhibition (or induction of apoptosis), cells cultured 3 to 5 days, MTT (CCK8); read-out: IC50 Karpas 299 (NPM-ALK)
# KCL-22 (BCR-ABL) = test: In vitro growth inhibition of KCL-22 tumor cells (MTT/CCK8); assay type: cell-based, Human; settings: Homo sapiens, KCL-22; in vitro growth inhibition (or induction of apoptosis), cells cultured 3 to 5 days, MTT (CCK8); read-out: IC50 KCL-22 (BCR-ABL)
# KATO III (FGFR2 amp) = test: In vitro growth inhibition of KATO III tumor cells (MTT/CCK8); assay type: cell-based, Human; settings: Homo sapiens, KATO III; in vitro growth inhibition (or induction of apoptosis), cells cultured 3 to 5 days, MTT (CCK8); read-out: IC50 KATO III (FGFR2 amp)
# DMS114 = test: In vitro growth inhibition of DMS114 cells; assay type: cell-based; settings: Homo sapiens, DMS-114, FGFR1 amp
# Procedure: as §1, with “Adherent cells were digested with 0.25% trypsin-EDTA (Gibco). Suspension” for “Suspension”
# as §4, §5, §3, §6
# H1703 (PDGFRa amp) = test: In vitro growth inhibition of H1703 tumor cells (MTT/CCK8); assay type: cell-based, Human; settings: Homo sapiens, NCI-H1703; in vitro growth inhibition (or induction of apoptosis), cells cultured 3 to 5 days, MTT (CCK8); read-out: IC50 H1703 (PDGFRa amp)
# MFM-223 = test: In vitro growth inhibition of MFM-223 cells; assay type: cell-based; settings: Homo sapiens, PI3KCA H1047R, FGFR1 amp, FGFR2 amp
# Procedure: as §1, with “Adherent cells were digested with 0.25% trypsin-EDTA (Gibco). Suspension” for “Suspension”
# as §4, §5, §3, §6
# SNU-16 = test: In vitro growth inhibition of SNU-16 cells; assay type: cell-based; settings: Homo sapiens, FGFR2 amp
# Procedure: as §1, with “Adherent cells were digested with 0.25% trypsin-EDTA (Gibco). Suspension” for “Suspension”
# as §4, §5, §3, §6
# Huh-7 = test: In vitro growth inhibition of Huh-7 cells; assay type: cell-based; settings: Homo sapiens, FGFR3+++, FGFR4 +++
# Procedure: as §1, with “Adherent cells were digested with 0.25% trypsin-EDTA (Gibco). Suspension” for “Suspension”
# as §4, §5, §3, §6
# MOLM-13 (FLT3-ITD) = test: In vitro growth inhibition of MOLM-13 tumor cells (MTT/CCK8); assay type: cell-based, Human; settings: Homo sapiens, MOLM-13; in vitro growth inhibition (or induction of apoptosis), cells cultured 3 to 5 days, MTT (CCK8); read-out: IC50 MOLM-13 (FLT3-ITD)
compound,measurement,setting,value
"COc1c(OCCCN2CCOCC2)ccc2c1N=C(NC(=O)c1cnc(N)nc1)N1CCN=C21 [BAY 80-6946, reference compound]",IC50,HCT116,65.1 nM
same,IC50,KYSE70,19.7 nM
same,IC50,SK-OV-3,10.2 nM
same,IC50,HCC1954,6.8 nM
same,IC50,A2780,9.67 nM
same,IC50,NCI-H460,30.4 nM
same,IC50,AGS,39.5 nM
same,IC50,HGC-27,17.3 nM
same,IC50,SW48,27.5 nM
"COc1cc2nccc(Oc3ccc(NC(=O)Nc4cc(C(C)(C)C)n[nH]4)c(Cl)c3)c2cc1C(N)=O [Compound 25, 4-{4-[3-(5-tert-butyl-2H-pyrazol-3-yl)-ureido]-3-chloro-phenoxy}-7-methoxyquinolin-6-carboxamide]",IC50,MDA-MB-453,309 nM
same,IC50,JHH-7,4.88 nM
same,IC50,Cal-120,64.7 nM
same,IC50,RT112/84,31.5 nM
same,IC50,PLC/PRF/5,2.95 nM
same,IC50,JIMT-1,467 nM
same,IC50,Hep G2,127 nM
same,IC50,Hep3B2 (FGFR3/4+++),14.2 nM
same,IC50,Kasumi-1 (KIT N822K),44 nM
same,IC50,H1581 (FGFR1 amp),9.7 nM
same,IC50,AN3-CA,4.95 nM
same,IC50,A375,129 nM
same,IC50,Karpas 299 (NPM-ALK),600 nM
same,IC50,KCL-22 (BCR-ABL),16.4 nM
same,IC50,KATO III (FGFR2 amp),0.24 nM
same,IC50,DMS114,15.6 nM
same,IC50,H1703 (PDGFRa amp),13.5 nM
same,IC50,MFM-223,21.6 nM
same,IC50,SNU-16,1.95 nM
same,IC50,Huh-7,7.12 nM
same,IC50,MOLM-13 (FLT3-ITD),19.1 nM
